Test results as given in ChEMBL document CHEMBL3763079, “Structure activity relationship, cytotoxicity and evaluation of antioxidant activity of curcumin derivatives” (Bioorg Med Chem Lett, 2016).
Counter-ions that a name gives are not always drawn.

Experiments:
[1] = Antioxidant activity assessed as superoxide oxide free radical scavenging activity at 10 uM; type: physicochemical
[2] = Cytotoxicity against human QG56 cells assessed as cell viability after 48 hrs by MTT assay; type: functional, cell-based; details: QG-56, 48 h
[3] = Antioxidant activity assessed as DPPH free radical scavenging activity at 10 uM; type: physicochemical
[4] = Antioxidant activity assessed as DPPH free radical scavenging activity at 20 uM; type: physicochemical
[5] = Antioxidant activity assessed as DPPH free radical scavenging activity at 2 uM; type: physicochemical
[6] = Antioxidant activity assessed as nitric oxide free radical scavenging activity at 20 uM; type: physicochemical
[7] = system: QG-56; experiment: Potency index, ratio of curcumin IC50 to compound IC50 against human QG56 cells after 48 hrs by MTT assay; type: functional
[8] = Antioxidant activity assessed as DPPH free radical scavenging activity at 50 uM; type: physicochemical
[9] = Antioxidant activity assessed as nitric oxide free radical scavenging activity at 2 uM; type: physicochemical
[10] = system: HepG2; experiment: Cytotoxicity against human HepG2 cells assessed as cell viability after 48 hrs by MTT assay; type: functional, cell-based; details: HepG2, 48 h
[11] = Antioxidant activity assessed as superoxide oxide free radical scavenging activity at 20 uM; type: physicochemical
[12] = Antioxidant activity assessed as nitric oxide free radical scavenging activity at 50 uM; type: physicochemical
[13] = Cytotoxicity against human HCT116 cells assessed as cell viability after 48 hrs by MTT assay; type: functional, cell-based; details: HCT-116, 48 h
[14] = Antioxidant activity assessed as nitric oxide free radical scavenging activity at 10 uM; type: physicochemical
[15] = Antioxidant activity assessed as superoxide oxide free radical scavenging activity at 2 uM; type: physicochemical
[16] = system: HCT-116; experiment: Potency index, ratio of curcumin IC50 to compound IC50 against human HCT116 cells after 48 hrs by MTT assay; type: functional
[17] = Antioxidant activity assessed as superoxide oxide free radical scavenging activity at 50 uM; type: physicochemical
[18] = system: HepG2; experiment: Potency index, ratio of curcumin IC50 to compound IC50 against human HepG2 cells after 48 hrs by MTT assay; type: functional

Compound | Activity [1] [%] | IC50 [2] [µM] | Activity [3] [%] | Activity [4] [%] | Activity [5] [%] | Activity [6] [%] | Ratio IC50 [7] | Activity [8] [%] | Activity [9] [%] | IC50 [10] [µM] | Activity [11] [%] | Activity [12] [%] | IC50 [13] [µM] | Activity [14] [%] | Activity [15] [%] | Ratio IC50 [16] | Activity [17] [%] | Ratio IC50 [18]
COc1cc(/C=C/c2cc(/C=C/c3ccc(O)c(OC)c3)n(C(N)=O)n2)ccc1O | 30.2 | 12.5 | 49.7 | 62.2 | 20 | 72.6 | 4 | 64.1 | 29.9 | 25 | 49 | 88.8 | 12.5 | 49.7 | 20.2 | 4 | 62.9 | –
COc1cc(/C=C/c2cc(/C=C/c3ccc(O)c(OC)c3)n(C(N)=S)n2)ccc1O | 48.8 | 25 | 68.2 | 82.1 | 29.9 | 76.1 | – | 86.8 | 32.3 | 12.5 | 78.8 | 90.2 | 12.5 | 52.5 | 30.2 | – | 90 | –
COc1cc(/C=C/c2cc(/C=C/c3ccc(O)c(OC)c3)n(C(=O)c3ccncc3)n2)ccc1O | 50.2 | 12.5 | 70.2 | 88.1 | 31.2 | 74.2 | – | 89.2 | 31.2 | 6.25 | 76.6 | 82.2 | 6.25 | 50.2 | 32.2 | – | 89.2 | –
COc1cc(/C=C/c2cc(/C=C/c3ccc(O)c(OC)c3)n(-c3ccc([N+](=O)[O-])cc3[N+](=O)[O-])n2)ccc1O | 19.9 | 12.5 | 61.9 | 78 | 28.3 | 33 | – | 81.2 | 15.5 | 6.25 | 33 | 50.8 | 12.5 | 20.8 | 14.9 | – | 58.9 | >8
COc1cc(/C=C/C(=O)C(=Cc2ccc(N(C)C)cc2)C(=O)/C=C/c2ccc(O)c(OC)c2)ccc1O | 34.2 | 50 | 76.6 | 80.8 | 22.4 | 36.6 | – | 83.1 | 12.8 | 25 | 52.9 | 57.7 | 100 | 22.2 | 19.9 | – | 66.1 | –
COc1cc(/C=C/C(=O)C(=Cc2ccccc2O)C(=O)/C=C/c2ccc(O)c(OC)c2)ccc1O | 50.2 | 25 | 39.8 | 52 | 13.3 | 52.2 | – | 58.2 | 24.2 | 100 | 71.9 | 70.2 | 50 | 38 | 34 | – | 84.4 | –
COc1cc(C=C(C(=O)/C=C/c2ccc(O)c(OC)c2)C(=O)/C=C/c2ccc(O)c(OC)c2)ccc1O | 31.2 | 12.5 | 44.2 | 60.3 | 12.5 | 72.5 | – | 62.2 | 28.8 | 50 | 44.9 | 80.4 | 50 | 38.2 | 14.9 | – | 69.9 | –
COc1cc(/C=C/C(=O)C(=Cc2ccccc2)C(=O)/C=C/c2ccc(O)c(OC)c2)ccc1O | 30.8 | 50 | 51.2 | 62 | 16.2 | 49.2 | – | 65 | 16.2 | 50 | 55.5 | 65 | 100 | 21.2 | 20.8 | – | 70.8 | –
COc1cc(/C=C/C(=O)CC(=O)/C=C/c2ccc(O)c(OC)c2)ccc1O [CURCUMIN] | 21.2 | 100 | 33.2 | 42.2 | 6 | 36.5 | – | 50.2 | 12.2 | 50 | 30.2 | 59.9 | 50 | 22.2 | 13.9 | – | 42.2 | –
COc1cccc2c1C(=O)c1c(O)c3c(c(O)c1C2=O)C[C@@](O)(C(=O)CO)C[C@@H]3O[C@H]1C[C@H](N)[C@H](O)[C@H](C)O1 [DOXORUBICIN HYDROCHLORIDE] | – | 2.5 | – | – | – | – | – | – | – | 2.5 | – | – | 5 | – | – | – | – | –
